What was measured:
[1] = tested on: rat insulinoma INS-1 cells; assay: Insulin release from INS-1 cells (ELISA); assay type: cell-based; settings: 15 nM, 12 hours
Procedure: FIG. 30. Insulin release from the immortalized rat insulinoma INS-1 cells is increased following 21-AABP2 stimulation. INS-1 cells (832/13, ThermoFisher) were grown in RPM 1640 medium until a confluency of 70% was achieved and switched to RPM 1640 medium supplied with 15 nM of 21-AABP2 and incubated for 12 hours. The insulin concentration in the supernatant of cell culture medium was measured by MSD rat/mouse insulin ELISA kit. Data are presented as mean+/−SEM of one representative experiment done in biological triplicate. Statistical significance was determined by unpaired two-tailed Student's t test, *, p<0.05.
INS-1 cells were grown in RPMI 1640 medium (11875093, ThermoFisher Scientific) until a confluency of 70% was achieved and switched to RPMI 1640 medium supplied with 15 nM of 21-AABP2 and incubated for 12 hours. The insulin concentration in supernatant of cell culture medium was measured by MSD rat/mouse insulin ELISA kit (Merck Millipore).

[2] = tested on: murine inguinal white adipocytes; assay: Thermogenesis gene expression in murine inguinal adipocytes (q-PCR); assay type: cell-based, mouse; settings: mouse inguinal preadipocytes, 15 nM every other day, 6 days
Procedure: (§1) FIG. 9. Exposure of recombinant RUCILP2 to human visceral white pre-adipocytes or murine inguinal white adipocytes causes up-regulation of the expression of genes involved in thermogenesis/browning. Upper panel: mRNA expression level of adipocyte differentiation marker genes including Ucp1, Pparγ1, Dio2, and Cox2 and brown adipocyte-selective genes including Cpt1b and Ebf2 on human white preadipocytes (HWP). Human white preadipocytes were cultured until 80% confluent and switched into differentiation media (with 0.3 ml/ml fetal calf serum, 8 ug/ml d-biotin, 0.5 ug/ml insulin, 400 ng/ml dexamethasone). The differentiation process to mature adipocytes was completed after 12-14 days. The treatment of RUCILP2 started from the third day of differentiation. Cells were harvested after 14 days of differentiation and the gene expressions were quantified by q-PCR. […] Statistical significance was determined by unpaired two-tailed Student's t test. *, p<0.05 vs 0 nM RUCILP2.
(§2) FIG. 28. […] Cells were harvested after 14 days of differentiation and the indicated genes were quantified by q-PCR. […] Cells were harvested after 6 days of differentiation and thermogenesis gene were quantified by q-PCR. […] Cells were harvested after 4 days of differentiation and expression of myogenesis genes were quantified by q-PCR. […] Statistical significance was determined by unpaired two-tailed Student's t test, *, p<0.05 […]

[3] = tested on: human visceral white pre-adipocytes; assay: Thermogenesis/browning gene expression in human visceral white pre-adipocytes (q-PCR); assay type: cell-based; settings: 15 nM, 14 days of differentiation
Procedure: as §1, §2

murine C2C12 myoblasts = assay: Myotube formation and myogenesis gene expression in C2C12 myoblasts; assay type: cell-based, mouse
Procedure: FIG. 12. […] The C2C12 myotubes were treated with indicated doses of RUCILP2 overnight and myotube images were collected at magnification, ×10.
FIG. 28. […] White preadipocytes from human visceral fat (C-12732, PromoCell) were cultured until 80% confluent and switched into differentiation media (with 0.3 ml/ml of fetal calf serum (FCS), 8 ug/ml of d-biotin, 0.5ug/ml of insulin, 400 ng/ml of dexamethasone) in the presence of 15 nM of 21-AABP2. The differentiation process to mature adipocytes was completed after 14 days. Cells were harvested after 14 days of differentiation and the indicated genes were quantified by q-PCR. Inguinal fat tissues from 6-week-old wild-type C57BL/6J female mice were dissected and washed with PBS, minced and digested for 1 hour at 37° C. in PBS containing 10 mM CaCl2, 2.4 U/ml dispase II (Roche) and 10 mg/ml collagenase D (Roche). After adding warm DMEM/F12 (1:1) with 10% FCS, digested tissue was filtered through a […] cell strainer and centrifuged at 600×g for 10 minutes. Pellet was resuspended by 40 ml DMEM/F12 (1:1) with 10% FCS and filtered through a […] cell strainer followed by centrifugation at 600×g for 10 minutes. Pelleted inguinal stromal vascular cells were grown to confluence and split onto 12-well plates. The cells were induced to differentiate by treatment with […], 0.5 mM isobutyl methyl xanthine for 2 days. After that, cells were maintained in […] for 4 days with medium change every other day. The cells were treated with 15 nM of 21-AABP2 every other day during 6 days of differentiation. Cells were harvested after 6 days of differentiation and thermogenesis gene were quantified by q-PCR. C2C12 myoblasts (CRL-1772, ATCC) were cultured until 80% confluent and switched into differentiation media (with 2% horse serum). The treatment with 21-AABP2 started from the second day of differentiation. Cells were harvested after 4 days of differentiation and expression of myogenesis genes were quantified by q-PCR. Data are presented as mean+/−SEM of one representative experiment done in biological triplicates. Statistical significance was determined by unpaired two-tailed Student's t test, *, p<0.05
FIG. 29. […] Representative images of myoblasts (CRL-1772, ATCC) at 24h of differentiation in the presence of phosphate buffered saline (PBS, blank) or 21-AABP2 (15 nM). Presented images were from one representative experiment done in biological triplicates.
C2C12 cells were seeded on 12-well plates under DMEM/F-12 medium (Dulbecco's Modified Eagle Medium/Nutrient Mixture F-12, Fisher Scientific, #11524436), supplemented with 10% FBS (Fetal Bovine Serum, Fisher Scientific, #11550356) and 1% Penicillin-Streptomycin (Fisher Scientific, #11548876). Cell cultures were maintained in a humidified chamber with 5% CO2 at 37° C., and culture media were changed every 2-3 days.
At approximately 80% confluence, 10% fetal bovine serum was replaced with 2% horse serum to induce C2C12 myoblast cells to differentiate into myotubes. Twenty-four hours later (day 1 of the differentiation), the cells were treated with recombinant RUCILP2 or commercial recombinant irisin (Sigma, #SRP8039-10UG and Phoenix pharmaceuticals, #067-29A) or saline. For integrin inhibitor treatment, cells were treated with 10 μM of CycloRGDyK (Selleckchem, #S7844) for 10 minutes and washed with PBS before treated with recombinant RUCILP2 or commercial recombinant irisin or saline. At day three, the cells were refreshed with the same media as day one. After treatments for six hours on day 3, C2C12 cells were harvested for qRT-PCR analysis.
C2C12 myoblasts were cultured until 80% confluent and switched into differentiation media (with 2% horse serum). The treatment with 21-AABP2 started from the second day of differentiation. Representative images of the formed myotubes at 24h of differentiation in the presence of PBS (blank) or 21-AABP2 (15 nM) were captured. […]

## 21-AABP2: 21 amino acid trypsin cleaved fragment of RUCILP2, made recombinantly in E. coli (AETTYFVEVTAVDAAGNESVK; Ruminococcus torques)
[1]
  insulin release: increased
[2]
  expression of key genes regulating thermogenesis: induces expression
[3]
  expression of genes involved in thermogenesis/browning: promotes expression
Murine C2C12 myoblasts; C2C12, 15 nM, 24h of differentiation
  myotube development: increases myotube development
Murine C2C12 myoblasts; C2C12, harvested after 4 days of differentiation
  expression of genes involved in myogenesis (Mymk, Caveolin-3): stimulates expression

Reference: patent US20240336661A1, “PEPTIDES DERIVED FROM RUMINOCOCCUS TORQUES” (University of Copenhagen, priority 2021, published 2024)
